From patent US12692223B2, “Phenyl-sulfamoyl-benzoic acid derivatives as ERAP1-modulators” (GREY WOLF THERAPEUTICS LIMITED, priority 2021, dated 2026)

Biological target: T1, ERAP1 (Homo sapiens, UniProt Q9NZ08)
T1 construct: Purified ERAP1(37-941)-10His (ERAP1)
Assay: ERAP1 mediated hydrolysis of an amide substrate measured in a biochemical system (10-mer inhibition assay)
Conditions: purified ERAP1(37-941)-10His; 10-mer substrate; 23° C. for 1 h; excitation 279 nm, emission 355 nm; read-out: IC50 vs Decapeptide WRVYEKC(Dnp)ALK-acid (where Dnp is Dinitrophenyl maleimide) (10-mer)
Procedure, shortened: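 Purified ERAP1(37-941)-10His in 25 mM Bis-tris propane, 0.05% HPMC, pH 7.75, with compound, then 100 μM 10-mer WRVYEKC(Dnp)ALK or 240 μM L-AMC added (stock concentrations before 1:1 mixing), 1 h at 23 °C. Fluorescence read at ex 279/em 355 nm (10-mer) or ex 365/em 442 nm (L-AMC); IC50 from 4-parameter fit.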

T1 sequence (Q9NZ08 37-941): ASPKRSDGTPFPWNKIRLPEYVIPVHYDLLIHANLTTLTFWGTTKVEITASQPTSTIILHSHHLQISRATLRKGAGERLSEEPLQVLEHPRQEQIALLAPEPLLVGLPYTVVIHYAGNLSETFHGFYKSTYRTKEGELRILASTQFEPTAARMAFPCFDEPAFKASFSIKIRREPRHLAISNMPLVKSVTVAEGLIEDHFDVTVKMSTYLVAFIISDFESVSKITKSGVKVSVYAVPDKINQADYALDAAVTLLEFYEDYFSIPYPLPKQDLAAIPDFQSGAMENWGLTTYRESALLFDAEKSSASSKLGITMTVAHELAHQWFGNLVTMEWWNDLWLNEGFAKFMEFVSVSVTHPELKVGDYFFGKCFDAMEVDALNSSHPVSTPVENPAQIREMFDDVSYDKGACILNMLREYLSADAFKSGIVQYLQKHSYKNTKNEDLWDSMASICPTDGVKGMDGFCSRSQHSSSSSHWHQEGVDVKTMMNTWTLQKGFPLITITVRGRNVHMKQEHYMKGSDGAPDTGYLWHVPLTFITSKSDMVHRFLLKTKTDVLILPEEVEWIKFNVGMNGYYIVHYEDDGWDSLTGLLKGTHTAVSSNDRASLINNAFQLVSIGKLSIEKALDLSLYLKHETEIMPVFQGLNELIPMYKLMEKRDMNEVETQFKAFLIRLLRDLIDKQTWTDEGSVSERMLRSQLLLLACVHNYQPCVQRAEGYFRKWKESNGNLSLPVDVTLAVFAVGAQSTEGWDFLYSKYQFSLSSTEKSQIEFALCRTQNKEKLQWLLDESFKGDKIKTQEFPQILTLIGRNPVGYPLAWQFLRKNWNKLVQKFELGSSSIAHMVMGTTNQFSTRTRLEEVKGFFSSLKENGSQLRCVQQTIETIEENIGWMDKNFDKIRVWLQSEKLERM

| IC50 [nM] | Structure (SMILES) |
| --- | --- |
| < 1 | N#Cc1cc(NS(=O)(=O)c2cc(C(=O)O)ccc2C2CC2)c(OC2CCC23COC3)cc1Cl (centres unmarked) [Example 29, 3-(N-(2-((2-oxaspiro[3.3]heptan-5-yl)oxy)-4-chloro-5-cyanophenyl)sulfamoyl)-4-cyclopropylbenzoic acid] |
| 1 to 5 | N#Cc1cc(NS(=O)(=O)c2cc(C(=O)O)ccc2C2CC2)c(OCC2CC(F)(F)C2)cc1Cl [Example 31, 3-(N-(4-chloro-5-cyano-2-((3,3-difluorocyclobutyl)methoxy)phenyl)sulfamoyl)-4-cyclopropylbenzoic acid] |
| < 1 | N#Cc1cc(NS(=O)(=O)c2cc(C(=O)O)ccc2C2CC2)c(O[C@@H]2C[C@@H]3C[C@@H]3C2)cc1Cl [Example 41, Cis-3-(N-(2-(bicyclo[3.1.0]hexan-3-yloxy)− 4-chloro-5-cyanophenyl)sulfamoyl)-4-cyclopropylbenzoic acid] |
| < 1 | CC(Oc1cc(Cl)c(C#N)cc1NS(=O)(=O)c1cc(C(=O)O)ccc1C1CC1)C1CCC1 (centres unmarked) [Example 42, 3-(N-(4-chloro-5-cyano-2-(1-cyclobutylethoxy)phenyl)sulfamoyl)-4-cyclopropylbenzoic acid] |
| 1 to 5 | CC1(C)CC(COc2cc(Cl)c(C#N)cc2NS(=O)(=O)c2cc(C(=O)O)ccc2C2CC2)C1 [Example 75, 3-(N-(4-chloro-5-cyano-2-((3,3-dimethylcyclobutyl)methoxy)phenyl)sulfamoyl)-4-cyclopropylbenzoic acid] |
| < 1 | O=C(O)c1ccc(C2CC2)c(S(=O)(=O)Nc2cc(-c3ccns3)c(Cl)cc2OC2CCCC2)c1 [Example 22, 3-(N-(4-chloro-2-(cyclopentyloxy)−5-(isothiazol-5-yl)phenyl)sulfamoyl)-4-cyclopropylbenzoic acid] |
| > 5 | CCc1ccc(C(=O)O)cc1S(=O)(=O)Nc1cc(C(F)(F)F)ccc1OC1CCCC1 [Example 5, 3-(N-(2-(cyclopentyloxy)−5-(trifluoromethyl)phenyl)sulfamoyl)-4-ethylbenzoic acid] |
| < 1 | O=C(O)c1ccc(C2CC2)c(S(=O)(=O)Nc2cc(-n3cnnn3)c(Cl)cc2OC2CCCC2)c1 [Example 10, 3-(N-(4-chloro-2-(cyclopentyloxy)−5-(1H-tetrazol-1-yl)phenyl)sulfamoyl)-4-cyclopropylbenzoic acid] |
| < 1 | C#CC1CCCC1Oc1cc(Cl)c(C#N)cc1NS(=O)(=O)c1cc(C(=O)O)ccc1C1CC1 (single isomer, unassigned) [Example 126, 3-(N-(4-chloro-5-cyano-2-((cis-2-ethynylcyclopentyl)oxy)phenyl)sulfamoyl)-4-cyclopropylbenzoic acid] |
| < 1 | CC1CCCC1Oc1cc(Cl)c(C#N)cc1NS(=O)(=O)c1cc(C(=O)O)ccc1C1CC1 (racemic) [Example 105, 3-(N-(4-chloro-5-cyano-2-((cis-2-methylcyclopentyl)oxy)-phenyl)sulfamoyl)-4-cyclopropylbenzoic acid] |

| Structure (SMILES) | IC50 [nM] |
| --- | --- |
| COC1CCC1Oc1cc(Cl)c(C#N)cc1NS(=O)(=O)c1cc(C(=O)O)ccc1C1CC1 (racemic) [Example 137, 3-(N-(4-chloro-5-cyano-2-(cis-2-methoxycyclobutoxy)phenyl)sulfamoyl)-4-cyclopropylbenzoic acid] | < 1 |
| CC1(C)CCC1Oc1cc(Cl)c(C#N)cc1NS(=O)(=O)c1cc(C(=O)O)ccc1C1CC1 (centres unmarked) [Example 80, 3-(N-(4-chloro-5-cyano-2-(2,2-dimethylcyclobutoxy)phenyl)sulfamoyl)-4-cyclopropylbenzoic acid] | < 1 |
| CCc1ccc(C(=O)O)cc1S(=O)(=O)Nc1cc(C(F)(F)F)ccc1OC1CCC1 [Example 7, 3-(N-(2-cyclobutoxy-5-(trifluoromethyl)phenyl)sulfamoyl)-4-ethylbenzoic acid] | > 5 |
| N#Cc1cc(NS(=O)(=O)c2cc(C(=O)O)ccc2C2CC2)c(OC2CCC2C2CC2)cc1Cl (mixture of isomers) [Example 108, 3-(N-(4-chloro-5-cyano-2-(2-cyclopropylcyclobutoxy)-phenyl)sulfamoyl)-4-cyclopropylbenzoic acid] | < 1 |
| CC1(C)CCC1Oc1cc(Cl)c(C#N)cc1NS(=O)(=O)c1cc(C(=O)O)ccc1C1CC1 (single isomer, unassigned) [Example 94, 3-(N-(4-chloro-5-cyano-2-(2,2-dimethylcyclobutoxy)phenyl)-sulfamoyl)-4-cyclopropylbenzoic acid] | < 1 |
| O=C(O)c1ccc(C2CC2)c(S(=O)(=O)Nc2cc(-c3ccns3)c(Cl)cc2OC2CC(F)(F)C2)c1 [Example 50, 3-(N-(4-chloro-2-(3,3-difluorocyclobutoxy)-5-(isothiazol-5-yl)phenyl)sulfamoyl)-4-cyclopropylbenzoic acid] | < 1 |
| C#CC1(Oc2cc(Cl)c(C#N)cc2NS(=O)(=O)c2cc(C(=O)O)ccc2C2CC2)CCC1 [Example 54, 3-(N-(4-chloro-5-cyano-2-(1-ethynylcyclobutoxy)phenyl)sulfamoyl)-4-cyclopropylbenzoic acid] | 1 to 5 |
